Source: PubChem BioAssay AID330 (DTP/NCI, 2004)
“And” between values parts separate entries of the source, which are not always exact repeats. Equal values may be shown once. Toxic doses and inconclusive results are not listed. Rule for the calls: active = survival T/C of 150% or more; inactive = T/C below 125% in these data.

Tested on: P388 leukemia ip, CD2F1 mice, survival T/C
Assay: NCI In Vivo Anticancer Drug Screen. Data for tumor model P388 Leukemia (intraperitoneal) in CD2F1 (CDF1) mice
Conditions: endpoint: median survival time, higher = longer survival
How it was run: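 Mice carrying the transplanted tumor received test compound or vehicle. Survival was recorded in each group, and the value is the treated-group measurement divided by that of the vehicle-treated control group.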

[1] = dose: 100.0 mg/kg/injection, schedule: Q01DX001 (ip), vehicle: saline with Tween-80
[2] = dose: 50.0 mg/kg/injection, schedule: Q01DX005 (ip), vehicle: Klucel (hydroxypropylcellulose) (HPC)
[3] = dose: 100.0 mg/kg/injection, schedule: Q01DX005 (ip), vehicle: Klucel (hydroxypropylcellulose) (HPC)
[4] = dose: 200.0 mg/kg/injection, schedule: Q01DX005 (ip), vehicle: Klucel (hydroxypropylcellulose) (HPC)
[5] = dose: 50.0 mg/kg/injection, schedule: Q01DX009 (ip), vehicle: Klucel (hydroxypropylcellulose) (HPC)
[6] = dose: 100.0 mg/kg/injection, schedule: Q01DX009 (ip), vehicle: Klucel (hydroxypropylcellulose) (HPC)
[7] = dose: 200.0 mg/kg/injection, schedule: Q01DX009 (ip), vehicle: Klucel (hydroxypropylcellulose) (HPC)
[8] = dose: 60.0 mg/kg/injection, schedule: Q01DX005 (ip), vehicle: saline with Tween-80
[9] = dose: 120.0 mg/kg/injection, schedule: Q01DX005 (ip), vehicle: saline with Tween-80
[10] = dose: 240.0 mg/kg/injection, schedule: Q01DX005 (ip), vehicle: saline with Tween-80
[11] = dose: 50.0 mg/kg/injection, schedule: Q01DX009 (ip), vehicle: saline with Tween-80
[12] = dose: 100.0 mg/kg/injection, schedule: Q01DX009 (ip), vehicle: saline with Tween-80
[13] = dose: 200.0 mg/kg/injection, schedule: Q01DX009 (ip), vehicle: saline with Tween-80
[14] = dose: 25.0 mg/kg/injection, schedule: Q01DX005 (ip), vehicle: Klucel (hydroxypropylcellulose) (HPC)
[15] = dose: 12.5 mg/kg/injection, schedule: Q01DX005 (ip), vehicle: Klucel (hydroxypropylcellulose) (HPC)

Measured: T/C

CS/C(Nc1ccccc1)=C1\CCCn2c1nc1ccccc1c2=O
inactive: dose: 25.0 mg/kg/injection, schedule: Q01DX001 (ip), vehicle: saline with Tween-80 105 % of control | dose: 50.0 mg/kg/injection, schedule: Q01DX001 (ip), vehicle: saline with Tween-80 99 % of control | [1] 90 % of control and 91 % of control

CC1(C)OC2OC3C(CNCCO)OC(c4ccccc4)OC3C2O1 (stereo not given)
inactive: [2] 107 % of control | [3] 108 % of control | [4] 101 % of control

N#CCCCCCN1CCN(c2cccc(Cl)c2)CC1
inactive: [5] 100 % of control | [6] 100 % of control | [7] 96 % of control

O=C(CC(=O)c1ccc(Cl)s1)C(=O)Nc1cccc(C(F)(F)F)c1
inactive: [8] 105 % of control | [9] 102 % of control | [10] 106 % of control

CC(=O)N1CC(=O)NC1=S
inactive: [11] 106 % of control | [12] 97 % of control | [13] 103 % of control and 95 % of control | dose: 400.0 mg/kg/injection, schedule: Q01DX009 (ip), vehicle: saline with Tween-80 104 % of control

NC(Cc1ccc2ccccc2c1Br)C(=O)O (stereo not given)
inactive: [5] 99 % of control | [6] 99 % of control | [7] 97 % of control

O=C(Nc1ccc(Cl)cc1)Nc1nnc(/C=C/c2ccc(Cl)c(Cl)c2)o1
inactive: [8] 95 % of control | [9] 91 % of control | [10] 101 % of control

COC(=O)c1nc(=S)[nH]c(C(=O)OC)c1C(=O)c1ccccn1
inactive: dose: 60.0 mg/kg/injection, schedule: Q01DX005 (ip), vehicle: Klucel + Tween-80 105 % of control | dose: 120.0 mg/kg/injection, schedule: Q01DX005 (ip), vehicle: Klucel + Tween-80 95 % of control | dose: 240.0 mg/kg/injection, schedule: Q01DX005 (ip), vehicle: Klucel + Tween-80 95 % of control

Cc1cc(C2C(=O)c3ccccc3C2=O)cc(C(C)(C)C)c1O
inactive: dose: 100.0 mg/kg/injection, schedule: Q04DX002 (ip), vehicle: saline 115 % of control | dose: 200.0 mg/kg/injection, schedule: Q04DX002 (ip), vehicle: saline 107 % of control | dose: 400.0 mg/kg/injection, schedule: Q04DX002 (ip), vehicle: saline 96 % of control

COC(=O)N(C)C1=CCC(C(C)(C)C)CC1 (stereo not given)
inactive: [14] 103 % of control | [2] 106 % of control | [3] 107 % of control | [4] 105 % of control

CC1(C)CCC[C@]2(C)[C@@H](C=O)C(C=O)=CC[C@@H]12
inactive: dose: 3.12 mg/kg/injection, schedule: Q01DX005 (ip), vehicle: Klucel (hydroxypropylcellulose) (HPC) 102 % of control | dose: 6.25 mg/kg/injection, schedule: Q01DX005 (ip), vehicle: Klucel (hydroxypropylcellulose) (HPC) 103 % of control | [15] 106 % of control

O=C1C(=C2C=CN(CCN3CCCC3)C=C2)C(=O)c2ccccc21
inactive: [5] 94 % of control | [6] 99 % of control | [7] 99 % of control

CCCCCCCC/C=C/CCCCCCCC(=O)NCCCN (tested in a mixture with another compound)
inactive: dose: 25.0 mg/kg/injection, schedule: Q04DX002 (ip), vehicle: saline 104 % of control | dose: 50.0 mg/kg/injection, schedule: Q04DX002 (ip), vehicle: saline 103 % of control

CN(CCO)CNC(=O)C1=C(O)C2(O)C(=O)C3=C(O)c4c(O)cccc4C(C)(O)C3CC2C(N(C)C)C1=O (stereo not given)
inactive: [2] 105 % of control | [3] 103 % of control | [4] 100 % of control

CCCCCC1C(=O)CNC1(C(=O)OCC)C(=O)OCC (stereo not given)
inactive: dose: 12.5 mg/kg/injection, schedule: Q01DX009 (ip), vehicle: Klucel (hydroxypropylcellulose) (HPC) 104 % of control | dose: 25.0 mg/kg/injection, schedule: Q01DX009 (ip), vehicle: Klucel (hydroxypropylcellulose) (HPC) 108 % of control | [5] 104 % of control | [6] 88 % of control | [7] 89 % of control

O=C1CCC(=O)c2c1c(O)c1c(O)ccc(O)c1c2O
inactive: dose: 6.25 mg/kg/injection, schedule: Q01DX005 (ip), vehicle: saline with Tween-80 96 % of control | dose: 12.5 mg/kg/injection, schedule: Q01DX005 (ip), vehicle: saline with Tween-80 87 % of control | dose: 25.0 mg/kg/injection, schedule: Q01DX005 (ip), vehicle: saline with Tween-80 94 % of control

CC(C)N(C(C)C)P1N(C(C)(C)C)N=NN1C(C)(C)C
inactive: [15] 102 % of control | [14] 100 % of control | [2] 102 % of control and 107 % of control

CC1=C(C)C(=O)C(C(C)(C)CC(=O)n2cc(F)c(=O)[nH]c2=O)=C(C)C1=O
inactive: [1] 111 % of control

COc1ccc(Cc2ccc(OC)c(OC)c2)cc1OC
inactive: dose: 25.0 mg/kg/injection, schedule: Q04DX003 (ip), vehicle: saline with Tween-80 99 % of control | dose: 50.0 mg/kg/injection, schedule: Q04DX003 (ip), vehicle: saline with Tween-80 99 % of control | dose: 100.0 mg/kg/injection, schedule: Q04DX003 (ip), vehicle: saline with Tween-80 113 % of control | dose: 200.0 mg/kg/injection, schedule: Q04DX003 (ip), vehicle: saline with Tween-80 109 % of control | dose: 400.0 mg/kg/injection, schedule: Q04DX003 (ip), vehicle: saline with Tween-80 120 % of control

CC(C)(C)NCC(O)c1ccc(O)c(NC=O)c1 (stereo not given)
inactive: [11] 110 % of control | [12] 100 % of control | [13] 102 % of control

NC(=O)CCBr
inactive: [11] 101 % of control | [12] 97 % of control
